The record followed here is patent US9382197B2, “Substituted hydroxamic acids and uses thereof” (Millennium Pharmaceuticals, Inc., priority 2010, dated 2016).

pIC50: −log10 of the molar value. A value given as a limit tells only on which side of the number the result lay.

For one experiment, the target named is T1, purified human HDAC6 (Homo sapiens, UniProt Q9UBN7).
T1 construct: purchased BPS Bioscience 5006
T1 sequence (Q9UBN7 1-1215): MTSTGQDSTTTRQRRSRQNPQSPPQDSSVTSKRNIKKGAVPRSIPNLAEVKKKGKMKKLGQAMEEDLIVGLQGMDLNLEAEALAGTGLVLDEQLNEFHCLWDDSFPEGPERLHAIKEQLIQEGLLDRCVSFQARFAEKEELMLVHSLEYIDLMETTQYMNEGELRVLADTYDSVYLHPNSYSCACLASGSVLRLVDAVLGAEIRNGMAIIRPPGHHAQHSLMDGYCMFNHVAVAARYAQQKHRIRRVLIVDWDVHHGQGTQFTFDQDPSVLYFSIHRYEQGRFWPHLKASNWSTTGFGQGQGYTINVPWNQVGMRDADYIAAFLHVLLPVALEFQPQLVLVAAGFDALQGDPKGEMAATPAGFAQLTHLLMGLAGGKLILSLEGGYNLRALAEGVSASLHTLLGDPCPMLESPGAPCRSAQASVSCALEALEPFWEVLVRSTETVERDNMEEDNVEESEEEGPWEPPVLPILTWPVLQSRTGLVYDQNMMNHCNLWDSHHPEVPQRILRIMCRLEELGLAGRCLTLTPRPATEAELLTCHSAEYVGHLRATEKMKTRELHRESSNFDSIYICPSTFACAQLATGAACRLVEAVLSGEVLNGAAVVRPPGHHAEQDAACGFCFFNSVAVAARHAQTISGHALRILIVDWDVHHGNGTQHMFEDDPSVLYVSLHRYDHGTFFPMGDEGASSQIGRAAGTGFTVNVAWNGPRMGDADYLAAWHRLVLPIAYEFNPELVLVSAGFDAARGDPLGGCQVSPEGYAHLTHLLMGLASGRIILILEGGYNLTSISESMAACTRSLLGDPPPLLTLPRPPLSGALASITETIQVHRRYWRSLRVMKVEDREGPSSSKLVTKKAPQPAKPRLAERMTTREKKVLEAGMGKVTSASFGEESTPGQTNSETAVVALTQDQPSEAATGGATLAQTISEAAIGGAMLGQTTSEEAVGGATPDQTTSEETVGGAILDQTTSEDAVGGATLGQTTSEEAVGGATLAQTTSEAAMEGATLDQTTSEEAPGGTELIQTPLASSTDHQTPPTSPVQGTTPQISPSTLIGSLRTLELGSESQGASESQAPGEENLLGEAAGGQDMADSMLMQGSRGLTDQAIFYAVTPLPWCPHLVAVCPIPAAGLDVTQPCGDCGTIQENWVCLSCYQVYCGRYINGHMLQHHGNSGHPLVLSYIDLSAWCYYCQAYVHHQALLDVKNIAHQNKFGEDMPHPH
As to the kind of experiment: HDAC6 Enzyme Assay. Type of experiment: biochemical. Particulars: bin: greater than 500 nM and less than 1 μM (lower bound in nM, upper bound in μM). On the procedure: To measure the inhibition of HDAC6 activity, purified human HDAC6 (BPS Bioscience; Cat. No. 5006) is incubated with substrate Ac-Arg-Gly-Lys(Ac)-AMC peptide (Bachem Biosciences; Cat. No. 1-1925) for 1 hour at 30° C. in the presence of test compounds or vehicle DMSO control. The reaction is stopped with the HDAC inhibitor trichostatin A (Sigma; Cat. No. T8552) and the amount of Arg-Gly-Lys-AMC generated is quantitated by digestion with trypsin (Sigma; Cat. No. T1426) and subsequent measurement of the amount of AMC released using a fluorescent plate reader (Pherastar; BMG Technologies) set at Ex 340 nm and Em 460 nm. Concentration response curves are generated by calculating the fluorescence increase in test compound-treated samples relative to DMSO-treated controls, and enzyme inhibition (IC50) values are determined from those curves.
`Cn1c(C(=O)N[C@@H](c2ccc(C(=O)NO)cc2)C(F)(F)F)cc(Cl)c1Cl` [Compound I-108, 4,5-dichloro-1-methyl-N-((1S)-2,2,2-trifluoro-1-{4-[(hydroxyamino)carbonyl]phenyl}ethyl)-1H-pyrrole-2-carboxamide] had an IC50 of 500 to 1000 nM.

Still in this experiment, the particulars now being: bin: greater than 1 μM.
Turning to `CC(NC(=O)c1c(Cl)cccc1Cl)c1cccc(C(=O)NO)c1` (stereo not drawn) [Compound I-366, 2,6-dichloro-N-(1-{3-[(hydroxyamino)carbonyl]phenyl}ethyl)benzamide], the negative logarithm of the IC50 (pIC50) was below 6.00. Still for that read-out and setting: the value for `CC(NC(=O)c1cc(Cl)c(Cl)n1C)c1cccc(C(=O)NO)c1` (stereo not drawn) [Compound I-39, 4,5-dichloro-N-(1-{3-[(hydroxyamino)carbonyl]phenyl}ethyl)-1-methyl-1H-pyrrole-2-carboxamide] was below 6.00. For `CC(C)C(NC(=O)C(c1ccccc1)C(C)C)c1ccc(C(=O)NO)cc1` (stereo not drawn) [Compound I-289, N-hydroxy-4-{2-methyl-1-[(3-methyl-2-phenylbutanoyl)amino]propyl}benzamide], the pIC50 was below 6.00.

Take `CC(C)(C)C(NC(=O)C1CCCCC1)c1ccc(C(=O)NO)cc1` (stereo not drawn) [Compound I-265, 4-{1-[(cyclohexylcarbonyl)amino]-2,2-dimethylpropyl}-N-hydroxybenzamide]: the negative logarithm of the IC50 (pIC50) was below 6.00.

Staying with this experiment, now noted: purified human HDAC6, substrate Ac-Arg-Gly-Lys(Ac)-AMC, 1 hour at 30° C.; reported as bins.
On to `O=C(NO)c1ccc([C@H](NC(=O)C23CC4CC(CC(C4)C2)C3)c2ccccc2)cc1` [Compound I-336, N-[(R)-{4-[(hydroxyamino)carbonyl]phenyl}(phenyl)methyl]adamantane-1-carboxamide], for which the negative logarithm of the IC50 (pIC50) is 6.30 to 7.00.

On to `CC(C)(C)NC(=O)N[C@H](c1ccc(C(=O)NO)cc1)C(F)(F)F` [Compound I-290, 4-((1R)-1-{[(tert-butylamino)carbonyl]amino}-2,2,2-trifluoroethyl)-N-hydroxybenzamide], for which the pIC50 is 6.30 to 7.00. Turning to `CC(NC(=O)c1ccc(-n2cccc2)cc1)c1ccc(C(=O)NO)cc1` (stereo not drawn) [Compound I-63, N-(1-{4-[(hydroxyamino)carbonyl]phenyl}ethyl)-4-(1H-pyrrol-1-yl)benzamide], the negative-log IC50 (pIC50) was above 7.00. The compound `Cn1ccc(C(=O)NC(c2ccc(C(=O)NO)cc2)C(C)(C)C)n1` (stereo not drawn) [Compound I-66, N-(1-{4-[(hydroxyamino)carbonyl]phenyl}-2,2-dimethylpropyl)-1-methyl-1H-pyrazole-3-carboxamide] had a pIC50 of 6.30 to 7.00.

As for `C[C@@H](NC(=O)C1(C)CCNCC1)c1ccc(C(=O)NO)cc1` [Compound I-487, N-((1R)-1-{4-[(hydroxyamino)carbonyl]phenyl}ethyl)-4-methylpiperidine-4-carboxamide], the negative-log IC50 (pIC50) was 6.30 to 7.00. Consider `CC(C)C(NC(=O)c1ccc(-c2ccc(F)cc2)cc1)c1ccc(C(=O)NO)cc1` (stereo not drawn) [Compound I-143, 4′-fluoro-N-(1-{4-[(hydroxyamino)carbonyl]phenyl}-2-methylpropyl)biphenyl-4-carboxamide], for which the pIC50 was above 7.00. For the compound `CC(NC(=O)Nc1ccc(OC(F)F)cc1)c1ccc(C(=O)NO)cc1` (stereo not drawn) [Compound I-150, 4-{1-[({[4-(difluoromethoxy)phenyl]amino}carbonyl)amino]ethyl}-N-hydroxybenzamide], the negative-log IC50 (pIC50) was above 7.00.

With `CC(NC(=O)C1CCCCC1)c1ccc(C(=O)NO)cc1` (stereo not drawn) [Compound I-208, 4-{1-[(cyclohexylcarbonyl)amino]ethyl}-N-hydroxybenzamide], the negative logarithm of the IC50 (pIC50) was above 7.00. In the case of `CC(C)(C)C(NC(=O)c1cc2ccccc2s1)c1ccc(C(=O)NO)cc1` (stereo not drawn) [Compound I-308, N-(1-{4-[(hydroxyamino)carbonyl]phenyl}-2,2-dimethylpropyl)-1-benzothiophene-2-carboxamide], the pIC50 was above 7.00.

The compound `CCC[C@@H](NC(=O)c1cc2ccccc2n1C)c1ccc(C(=O)NO)cc1` [Compound I-106, N-((1R)-1-{4-[(hydroxyamino)carbonyl]phenyl}butyl)-1-methyl-1H-indole-2-carboxamide] showed a pIC50 above 7.00. `COc1ccc(C(=O)NC(c2ccc(C(=O)NO)cc2)C(C)(C)C)cc1` (stereo not drawn) [Compound I-352, N-(1-{4-[(hydroxyamino)carbonyl]phenyl}-2,2-dimethylpropyl)-4-methoxybenzamide] gave a pIC50 of 6.30 to 7.00. `CC(NC(=O)c1ccccc1)c1ccc(C(=O)NO)cc1` (stereo not drawn) [Compound I-385, 4-[1-(benzoylamino)ethyl]-N-hydroxybenzamide] had a pIC50 above 7.00. Take `CC(NC(=O)Nc1ccc2c(c1)CCO2)c1ccc(C(=O)NO)cc1` (stereo not drawn) [Compound I-148, 4-(1-{[(2,3-dihydro-1-benzofuran-5-ylamino)carbonyl]amino}ethyl)-N-hydroxybenzamide]: the pIC50 is above 7.00. Still for that read-out and setting: the value for `CC(NC(=O)CCc1ccccc1)c1ccc(C(=O)NO)cc1` (stereo not drawn) [Compound I-45, N-hydroxy-4-{1-[(3-phenylpropanoyl)amino]ethyl}benzamide] was above 7.00; that for `COc1ccc(S(=O)(=O)NC(C)c2ccc(C(=O)NO)cc2)cc1` (stereo not drawn) [Compound I-47, N-hydroxy-4-(1-{[(4-methoxyphenyl)sulfonyl]amino}ethyl)benzamide] was 6.30 to 7.00.

Consider `Cc1ccc(S(=O)(=O)NC(C)c2ccc(C(=O)NO)cc2)cc1` (stereo not drawn) [Compound I-266, N-hydroxy-4-(1-{[(4-methylphenyl)sulfonyl]amino}ethyl)benzamide], for which the pIC50 was 6.30 to 7.00. Still for that read-out and setting: the value for `COc1ccc(C(=O)NC(c2ccc(C(=O)NO)cc2)C(C)C)cc1` (stereo not drawn) [Compound I-346, N-(1-{4-[(hydroxyamino)carbonyl]phenyl}-2-methylpropyl)-4-methoxybenzamide] was above 7.00.

`Cc1ccc(NC(=O)N[C@@H](c2ccc(C(=O)NO)cc2)C(C)C)cc1C` [Compound I-512, 4-[(1R)-1-({[(3,4-dimethylphenyl)amino]carbonyl}amino)-2-methylpropyl]-N-hydroxybenzamide]: the negative logarithm of the IC50 (pIC50) is above 7.00. On the same count and under the same terms, the value for `Cc1cccc(C)c1NC(=O)NC(C)c1ccc(C(=O)NO)cc1` (stereo not drawn) [Compound I-156, 4-[1-({[(2,6-dimethylphenyl)amino]carbonyl}amino)ethyl]-N-hydroxybenzamide] was 6.30 to 7.00; that for `Cc1c(C(=O)NC(c2ccc(C(=O)NO)cc2)C(C)(C)C)cnn1-c1ccccc1` (stereo not drawn) [Compound I-182, N-(1-{4-[(hydroxyamino)carbonyl]phenyl}-2,2-dimethylpropyl)-5-methyl-1-phenyl-1H-pyrazole-4-carboxamide] was 6.30 to 7.00; that for `CC(C)C(NC(=O)C1CCCCC1)c1ccc(C(=O)NO)cc1` (stereo not drawn) [Compound I-344, 4-{1-[(cyclohexylcarbonyl)amino]-2-methylpropyl}-N-hydroxybenzamide] was 6.30 to 7.00. The same measure, in the same setting: the value for `Cc1ccc(NC(=O)NC(C)c2ccc(C(=O)NO)cc2)cc1F` (stereo not drawn) [Compound I-120, 4-[1-({[(3-fluoro-4-methylphenyl)amino]carbonyl}amino)ethyl]-N-hydroxybenzamide] was above 7.00; that for `CC(C)[C@@H](NC(=O)Nc1c(F)cccc1F)c1ccc(C(=O)NO)cc1` [Compound I-521, 4-[(1R)-1-({[(2,6-difluorophenyl)amino]carbonyl}amino)-2-methylpropyl]-N-hydroxybenzamide] was above 7.00; that for `CCC[C@@H](NC(=O)C12CC3CC(CC(C3)C1)C2)c1ccc(C(=O)NO)cc1` [Compound I-15, N-((1R)-1-{4-[(hydroxyamino)carbonyl]phenyl}butyl)adamantane-1-carboxamide] was above 7.00.

Turning to `CC(NS(=O)(=O)c1ccc(Cl)cc1)c1ccc(C(=O)NO)cc1` (stereo not drawn) [Compound I-302, 4-(1-{[(4-chlorophenyl)sulfonyl]amino}ethyl)-N-hydroxybenzamide], the pIC50 is 6.30 to 7.00.

One may read the IC50 as the midpoint of a concentration-inhibition curve. High values mean weaker potency, low ones greater potency. As a reminder, the pIC50 is the negative decadic logarithm of the IC50, by convention in mol/L. High values mean a small IC50, low ones a large IC50.
